US20240003908A1, “POLYOL BIOMARKERS FOR CONGENITAL DISORDERS OF GLYCOSYLATION” (Mayo Foundation for Medical Education and Research, priority 2020, published 2024)
“And” between values parts separate entries of the source, which are not always exact repeats. Equal values may be shown once. Marks after values point to notes of the source that are not given here.

Tests used:
[1] = system: urine sorbitol and mannitol; assay: Urine polyols (GC/MS) in patients with other CDG, post-treatment with epalrestat; type: in vivo, human
Description: Urine specimens were collected from patients known to have a CDG. The samples were spiked with a mixture of labeled internal standards, allowed to equilibrate, and evaporated. The dry residue was derivatized to form trimethylsilyl esters then extracted with hexane. Specimens were analyzed by GC/MS, with selected ion monitoring using ammonia chemical ionization and a stable isotope dilution method (Jansen et al. Clin Chim Acta 1986, 157:277-294; and Kaur et al., Eur J Med Genet 2019, 62(8):103708). Sorbitol levels were considered elevated when they were above 10 mmol/mol creatinine, and mannitol levels were considered elevated when they were above 15 mmol/mol creatinine.

[2] = system: urine mannitol; assay: Urine mannitol (GC/MS) in a PMM2-CDG pediatric patient on oral epalrestat therapy; type: in vivo, human; conditions: for urine mannitol level: before therapy 648.6, controls <20
Description: (§1) Clinical studies: Epalrestat was used as an N of 1 study for a single pediatric patient with PMM2-CDG. An open label, single patient compassionate use study designed to assess the safety and tolerability of oral epalrestat therapy in a child with PMM2-CDG. The patient received […]. Concomitant medications, vital signs, blood draw for serum chemistry and hematology, and blood levels of epalrestat were collected at each study visit during a 6 month period to evaluate the safety and tolerability of oral epalrestat therapy in a child with PMM2-CDG. The Nijmegen Pediatric CDG Rating Scale (NPCRS) assessment was administered at the start of the study and at 6 months. Urine polyols were collected at the start, at 4 months, and at 6 months of therapy, and were measured as described elsewhere (Jansen et al., Clin Chim Acta 1986, 157:277-294). Briefly, 200 μl urine specimens were spiked with a mixture of labeled internal standards, allowed to equilibrate, and evaporated. […] Specimens were analyzed by GC/MS, selected ion monitoring using ammonia chemical ionization and a stable isotope dilution method. In general, the following protocol was used: • Creatinine (CR) values (mg/dL) were determined for all samples. • Multiplication factors were calculated for each patient sample. • 100 μL of Polyol QC Mix for the QC Standard and 100 μL water were pipetted into a labeled 16×100 screw-cap glass tube. • 200 μL each of low control and high control were pipetted into corresponding labeled 16×100 mm screw-cap glass tubes. • 200 μL of each patient sample was pipetted into a corresponding labeled 16×100 mm screw cap glass tube. […]
(§2) Urine sorbitol and mannitol levels also were quantified using similar processing of samples and GC/MS settings, monitoring ions specific for sorbitol and mannitol for peak area ratio calculations.
(§3) Patient assessment: Prior to the first dose of epalrestat and at 1, 2, 3, 6, 8, 9, 12 months during treatment, concomitant medications and vital signs were recorded and the patient was evaluated using the NPCRS. […]

[3] = system: urine sorbitol; assay: Urine sorbitol (GC/MS) in a PMM2-CDG pediatric patient on oral epalrestat therapy; type: in vivo, human
Description: as §1, §2, §3

[4] = system: fibroblasts from PMM2-CDG patients; assay: Sorbitol and mannitol levels (GC-MS) in fibroblasts treated with epalrestat for 5 days; type: cell-based, human; conditions: fibroblasts from 5 PMM2-CDG patients vs 5 healthy controls, 10 μM epalrestat 5 days
Description: Metabolomics measurements: Fibroblasts derived from patients carrying selected heterozygous mutations in PMM2 (R141H/F119L, R141H/E139K, R141H/N216I, and R141H/F183S) and healthy controls were cultured according to a protocol described elsewhere (Radenkovic et al., Am J Hum Genet. 2019, 104(5):835-846). Cells were grown in specialized medium and treated with 10 μM epalrestat (Iyer et al., supra) for 5 days with two changes of medium. Non-treated fibroblasts from both groups were used as negative controls. Global metabolomic changes were probed by LC/MS.
Polyols also were analyzed by GC due to the inability of LC/MS to distinguish between the same sized metabolites ([…], GLC1P, GLC6P, sorbitol/mannitol/galactitol, etc.) (Radenkovic et al., supra).

[5] = system: blood transferrin glycosylation; assay: Blood transferrin glycoform ratio analysis by mass spectrometry in patient P1; type: in vivo, human; conditions: for A-oligo/Di-oligo: control ratio ≤ 0.01; for Mono-oligo/Di-oligo: control ratio ≤ 0.06
Description: Patient assessment: Prior to the first dose of epalrestat and at 1, 2, 3, 6, 8, 9, 12 months during treatment, concomitant medications and vital signs were recorded and the patient was evaluated using the NPCRS. In addition, blood was drawn for serum chemistry, hematology, and plasma levels of epalrestat. Urine was collected for polyol measurement at baseline and twice over the course of 12 months of therapy.
Safety and efficacy: Safety measures included vital signs, change in CBC, liver function (INR, bilirubin, transaminases, and albumin) in blood, change in liver elastography, and following the pharmacokinetic profile of epalrestat. The efficacy of epalrestat was studied by clinical follow up (physical exam, NPCRS, ICARS), standard laboratory tests, and transferrin glycoform analysis by mass spectrometry.

CC(/C=C1\SC(=S)N(CC(=O)O)C1=O)=C\c1ccccc1 [epalrestat]
Mannitol (urine) ([1]; MAN1B1-CDG patient, second sample, after off-label epalrestat, first sample 14.92): 2) 10.13 mmol/mol creatinine | Sorbitol (urine) ([1]; MAN1B1-CDG patient, second sample, post-treatment with epalrestat, first sample 10.44): 2) 7.222^‡ mmol/mol creatinine | Sorbitol (urine) ([1]; SLC39A8-CDG patient, marked post-treatment with epalrestat): 18.0^‡ mmol/mol creatinine | urine mannitol level ([2]; 6 months of epalrestat therapy): 25.09 mmol/mol creatinine | urine mannitol level ([2]; after 3 months of epalrestat therapy): 37.32 mmol/mol creatinine | urinary mannitol level ([2]; at 4 months of epalrestat treatment, pretreatment 648.6, control less than 10): 37.32 mmol/mol creatinine | urine sorbitol level ([3]; 6 months of epalrestat therapy, prior to treatment 19.93, controls <5): 6.2 mmol/mol creatinine and 6.20 mmol/mol creatinine | urine sorbitol level ([3]; after 3 months of epalrestat therapy, before therapy 19.93, controls <5): 5.78 mmol/mol creatinine | urine sorbitol level ([3]; after 4 months of epalrestat treatment, prior to treatment 19.93, controls <5): 5.0 mmol/mol creatinine | sorbitol concentration, mean ratio after treatment ([4]; 1.4 prior to treatment, p=0.00013): 1.25 | mannitol concentration, mean ratio after treatment ([4]; 1.5 prior to treatment, p=0.064): 1.2 | A-oligo/Di-oligo ([5]; patient P1, 1st month of epalrestat, prior to first dose 0.005): 0.005 | Mono-oligo/Di-oligo ([5]; patient P1, 1st month of epalrestat, prior to first dose 0.09): 0.14 | A-oligo/Di-oligo ([5]; patient P1, 2nd month): 0.01 | Mono-oligo/Di-oligo ([5]; patient P1, 2nd month): 0.07 | A-oligo/Di-oligo ([5]; patient P1, 3rd month): 0.004 | Mono-oligo/Di-oligo ([5]; patient P1, 3rd month): 0.08 | A-oligo/Di-oligo ([5]; patient P1, 6th month): 0.003 | Mono-oligo/Di-oligo ([5]; patient P1, 6th month): 0.06 | A-oligo/Di-oligo ([5]; patient P1, 8th month): 0.004 | Mono-oligo/Di-oligo ([5]; patient P1, 8th month): 0.06 | A-oligo/Di-oligo ([5]; patient P1, 9th month): 0.004 | Mono-oligo/Di-oligo ([5]; patient P1, 12th month, after dose correction): 0.06 | A-oligo/Di-oligo ([5]; patient P1, 12th month): 0.004
